Test results published in ChEMBL document CHEMBL1142021, “Aglycon specificity profiling of alpha-glucosidases using synthetic probes” (Bioorg Med Chem Lett, 2005).

How the values were obtained:
[1] = target: T1, Lysosomal alpha-mannosidase (Homo sapiens) (UniProt O00754); assay: Inhibition of alpha-Mannosidase at 5 umol/mL
T1 sequence (whole entry): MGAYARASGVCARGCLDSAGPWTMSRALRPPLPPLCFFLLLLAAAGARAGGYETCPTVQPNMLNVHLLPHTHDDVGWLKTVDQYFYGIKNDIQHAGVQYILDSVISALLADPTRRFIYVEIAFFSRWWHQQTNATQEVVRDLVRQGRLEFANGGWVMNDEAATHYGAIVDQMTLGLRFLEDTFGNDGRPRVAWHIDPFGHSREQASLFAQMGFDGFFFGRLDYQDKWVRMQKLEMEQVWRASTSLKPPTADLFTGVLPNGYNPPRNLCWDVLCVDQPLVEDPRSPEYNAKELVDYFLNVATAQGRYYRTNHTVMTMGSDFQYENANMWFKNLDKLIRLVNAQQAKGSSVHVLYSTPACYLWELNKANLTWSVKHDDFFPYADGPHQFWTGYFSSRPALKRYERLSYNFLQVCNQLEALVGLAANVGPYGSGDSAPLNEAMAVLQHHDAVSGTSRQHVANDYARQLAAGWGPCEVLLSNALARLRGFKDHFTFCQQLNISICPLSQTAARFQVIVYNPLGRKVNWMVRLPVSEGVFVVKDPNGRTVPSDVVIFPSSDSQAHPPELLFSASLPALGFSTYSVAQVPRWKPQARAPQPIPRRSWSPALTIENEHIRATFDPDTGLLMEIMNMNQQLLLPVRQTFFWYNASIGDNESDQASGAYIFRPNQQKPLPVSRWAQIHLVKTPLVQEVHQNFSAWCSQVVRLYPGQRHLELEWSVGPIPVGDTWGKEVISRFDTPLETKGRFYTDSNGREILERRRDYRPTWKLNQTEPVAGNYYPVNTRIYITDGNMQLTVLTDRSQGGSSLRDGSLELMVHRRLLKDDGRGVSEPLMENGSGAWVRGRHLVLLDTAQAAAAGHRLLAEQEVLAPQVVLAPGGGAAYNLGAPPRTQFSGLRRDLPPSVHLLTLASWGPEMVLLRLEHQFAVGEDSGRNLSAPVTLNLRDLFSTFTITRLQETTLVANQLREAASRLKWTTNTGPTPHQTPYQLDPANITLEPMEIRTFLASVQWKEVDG

[2] = test system: Saccharomyces cerevisiae; assay: Inhibition of Saccharomyces cerevisiae glucosidase (of family 13 alpha-glucosidase) by compound with concentration 1 umol/mI
[3] = Inhibition of Flint corn glucosidase (of family 31 alpha-glucosidase) by compound with concentration 1 umol/mI
[4] = organism: Homo sapiens; assay: Inhibition of Glucosidase 2 at 2 umol/mI
[5] = target: T2, Alpha-glucosidase (Oryza sativa Japonica Group) (UniProt Q9LGC6); assay: Inhibition of Rice glucosidase (of family 31 alpha-glucosidase) at 1 umol/mL
T2 sequence (whole entry): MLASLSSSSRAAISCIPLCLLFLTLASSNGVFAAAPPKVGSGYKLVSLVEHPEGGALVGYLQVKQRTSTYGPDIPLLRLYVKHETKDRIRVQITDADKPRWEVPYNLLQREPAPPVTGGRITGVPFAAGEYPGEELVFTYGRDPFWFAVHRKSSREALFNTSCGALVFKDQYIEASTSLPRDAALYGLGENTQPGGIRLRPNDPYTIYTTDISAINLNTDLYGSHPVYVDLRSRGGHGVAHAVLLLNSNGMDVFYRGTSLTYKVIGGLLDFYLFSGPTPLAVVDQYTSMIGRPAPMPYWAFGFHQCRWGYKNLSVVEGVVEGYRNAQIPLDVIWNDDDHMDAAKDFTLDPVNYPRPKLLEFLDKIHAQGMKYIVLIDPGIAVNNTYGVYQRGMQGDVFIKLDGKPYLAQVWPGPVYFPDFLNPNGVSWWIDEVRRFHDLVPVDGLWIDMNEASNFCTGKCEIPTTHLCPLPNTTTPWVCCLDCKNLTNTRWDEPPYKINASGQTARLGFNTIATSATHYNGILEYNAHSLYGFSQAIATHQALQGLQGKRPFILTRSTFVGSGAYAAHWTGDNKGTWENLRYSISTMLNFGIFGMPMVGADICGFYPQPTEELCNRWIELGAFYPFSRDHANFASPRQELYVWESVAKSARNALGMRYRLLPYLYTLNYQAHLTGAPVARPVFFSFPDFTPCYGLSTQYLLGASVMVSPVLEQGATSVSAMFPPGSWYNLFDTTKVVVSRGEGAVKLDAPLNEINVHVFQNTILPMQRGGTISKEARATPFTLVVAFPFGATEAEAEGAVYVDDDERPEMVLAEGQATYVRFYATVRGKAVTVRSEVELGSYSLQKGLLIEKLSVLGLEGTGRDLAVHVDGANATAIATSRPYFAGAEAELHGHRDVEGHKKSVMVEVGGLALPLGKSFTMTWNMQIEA

[6] = target: T3, Alpha-glucosidase (Geobacillus stearothermophilus) (UniProt P94451); assay: Inhibition of Bacillus stearothermophilus glucosidase (of family 13 alpha-glucosidase) at 1 umol/mL
T3 sequence (whole entry): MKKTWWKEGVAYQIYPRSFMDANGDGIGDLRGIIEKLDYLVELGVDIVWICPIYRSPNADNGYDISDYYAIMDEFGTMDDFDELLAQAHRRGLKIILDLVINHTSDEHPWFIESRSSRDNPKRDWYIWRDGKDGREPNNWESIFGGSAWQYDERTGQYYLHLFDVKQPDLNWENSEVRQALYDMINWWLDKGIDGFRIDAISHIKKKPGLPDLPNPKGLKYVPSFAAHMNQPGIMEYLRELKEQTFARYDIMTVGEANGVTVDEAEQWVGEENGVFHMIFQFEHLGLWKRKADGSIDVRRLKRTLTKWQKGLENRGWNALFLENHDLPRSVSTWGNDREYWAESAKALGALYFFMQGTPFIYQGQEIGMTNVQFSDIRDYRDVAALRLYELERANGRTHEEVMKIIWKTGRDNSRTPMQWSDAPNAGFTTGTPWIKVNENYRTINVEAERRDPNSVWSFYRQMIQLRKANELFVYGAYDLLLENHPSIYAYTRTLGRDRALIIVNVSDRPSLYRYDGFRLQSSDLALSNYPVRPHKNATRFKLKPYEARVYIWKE

| inhibition [1] | inhibition [2] | inhibition [3] | inhibition [4] | inhibition [5] | inhibition [6] | SMILES |
| --- | --- | --- | --- | --- | --- | --- |
| < 1% | 21.1% | 14.1% | – | 8.5% | < 1% | O=C(CCO)NCC1OC(CO)C(O)C(O)C1O (stereo unspecified) |
| < 1% | < 1% | 29.1% | < 1% | 10.7% | < 1% | O=C(CO)NCC1OC(CO)C(O)C(O)C1O (stereo unspecified) |
| – | < 1% | 18.5% | < 1% | 7.6% | < 1% | O=C(CCCO)NCC1OC(CO)C(O)C(O)C1O (stereo unspecified) |
| < 1% | 100% | 37% | < 1% | 18.3% | 100% | O=C(CCCCO)NCC1OC(CO)C(O)C(O)C1O (stereo unspecified) |
| < 1% | < 1% | 44.6% | < 1% | 26% | < 1% | O=C(CCCCCO)NCC1OC(CO)C(O)C(O)C1O (stereo unspecified) |

The remaining lines, values behind:

| SMILES | inhibition [1] | inhibition [2] | inhibition [3] | inhibition [4] | inhibition [5] | inhibition [6] |
| --- | --- | --- | --- | --- | --- | --- |
| CC(=O)NCC1OC(CO)C(O)C(O)C1O (stereo unspecified) | < 1% | < 1% | 31% | < 1% | 21.8% | < 1% |
| CC(C)(C)C(=O)NCC1OC(CO)C(O)C(O)C1O (stereo unspecified) | < 1% | 6.1% | 5.6% | < 1% | 3.8% | < 1% |
| O=C(NCC1OC(CO)C(O)C(O)C1O)c1ccccc1 (stereo unspecified) | < 1% | 67.4% | 49.2% | 5.9% | 16% | < 1% |
